Reference: US20120225834A1, “OCULAR IONTOPHORESIS OF CHARGED MICELLES CONTAINING BIOACTIVE AGENTS” (EYEGATE PHARMACEUTICALS, INC., priority 2009, published 2012)
Read-outs that look alike come from different tables or passages of the source.

Assay: Solubilization of sparingly soluble compounds using quaternary ammonium cationic surfactants (dissolved concentration by HPLC)
Format: physicochemical
Description: Aqueous solubility of dexamethsone, a corticosteroid, and natamycin, an antifungal agent, was increased by using quaternary ammonium cationic surfactants cetyltrimethylammonium bromide (CTAB), ditetradecyldimethylammonium bromide (TMAB), and dioctadecyldimethylammonium chloride (OMAC). Stock solutions of surfactants were prepared by adding water to the surfactant and mixing under low shear at room temperature. The stock solution of CTAB and TMAB was prepared at 10 mg/mL and 20 mg/mL in WFI (water for injection) whereas the stock solution of OMAC was only prepared at 10 mg/mL due to gel formation at 20 mg/mL. Surfactant solutions with different concentrations were then prepared by diluting the corresponding stock solution with WFI.
Dexamethasone (or natamycin) was added to each surfactant solution in such quantity to precipitate. The mixture was sonicated for one hour in a sonication water tank and then stirred overnight.
Dissolved dexamethasone (or natamycin) concentration was analyzed on HPLC following two different procedures: (1) An aliquot of the mixture was centrifuged at 10 k RPM (9.3 k×g relative gravitational force) for 30 min. Clear supernatant was then analyzed on HPLC; (2) An aliquot of the mixture was filtered through a syringe filter (Acrodisc®, Supor membrane, 0.2 micrometers), and then analyzed on HPLC. […]

Row | Aqueous solubility | SMILES | Aqueous solubility (in aqueous solutions of quaternary ammonium cationic surfactants CTAB, TMAB and OMAC in WFI, sonicated one hour, stirred overnight, HPLC after centrifugation or 0.2 micrometer filtration)
1 | increased | C[C@@H]1C/C=C/C=C/C=C/C=C/[C@H](O[C@@H]2O[C@H](C)[C@@H](O)[C@H](N)[C@@H]2O)C[C@@H]2O[C@](O)(C[C@@H](O)C[C@H]3O[C@@H]3/C=C/C(=O)O1)C[C@H](O)[C@H]2C(=O)O [natamycin] | 
2 |  | C[C@@H]1C[C@H]2[C@@H]3CCC4=CC(=O)C=C[C@]4(C)[C@@]3(F)[C@@H](O)C[C@]2(C)[C@@]1(O)C(=O)CO [dexamethsone, dexamethasone] | increased
